Data published in patent US11446299B2, “Carbazole EHop-016 derivatives as anticancer and anti-migratory agents” (UNIVERSITY OF PUERTO RICO, priority 2017, dated 2022).
“Also recorded” adds a separate entry of the source.

Assays:
[1] = system: MDA-MB-231 and MDA-MB435 metastatic breast cancer cell lines; assay: Wound healing assay of HV-107 and HV-118; format: cell-based; details: Homo sapiens, 24 h, read-out: inhibition of cell migration
Procedure: FIG. 17 (A-B). Effect of HV-107 and HV-118 on cell migration. Wounds were created on confluent monolayers of MDA-MB-231 or MDA-MB-435 human metastatic breast cancer cells. Immediately after, cells were treated for 24 h with FIG. 17A. 0, 1000, or 2000 nM of HV-107; and FIG. 17B. 0, 100, or 200 nM HV-118. The distance traveled by HV-107 and HV-118 treated cells that migrated to close the wound was quantified relative to the distance traveled by control-treated cells. N=4-7; error bars represent ±SEM; * p≤0.05.
Finally, wound healing assays were performed to assess the effects of HV-107 and HV-118 on metastatic breast cancer cell migration.

[2] = system: breast cancer cell; assay: Breast cancer cell viability (cell line not given); format: cell-based; details: breast cancer cells, at concentrations ≥1 μM
[3] = system: MDA-MB-231 metastatic breast cancer cells; assay: Cell viability, CellTiter 96 AQueous One Solution Cell Proliferation Assay; format: cell-based, human; details: HV-107 24 or 48 h, HV-118 48 h
Procedure: (§1) FIG. 7. Effect of HV-107 on cell viability. Cells were treated with vehicle control (0.5% DMSO) or varying concentrations of HV-107 (250-6000 nM) for 48 h. Cell viability was measured using the CellTiter 96® AQueous One Solution Cell Proliferation Assay from Promega, as per manufacturer's instruction. Relative cell viability is presented for non-cancerous mammary epithelial cells (MCF10A) or metastatic breast cancer cells MDA-MB-231 or MDA-MB-435. N=3-4, each with three technical replicates; Error bars represent ±SEM; * p≤0.05.
(§2) FIG. 9. Effect of HV-118 on cell viability. Cells were treated with vehicle control (0.5% DMSO) or varying concentrations of HV-118 (10-500 nM) for 48 h. Cell viability was measured using the CellTiter 96® AQueous One Solution Cell Proliferation Assay from Promega, as per manufacturer's instruction. Relative cell viability is presented for human non-cancerous mammary epithelial cells (MCF10A) or human metastatic breast cancer cells MDA-MB-231 or MDA-MB-435. N=3, each with three technical replicates; error bars represent ±SEM; * p≤0.05.
(§3) Cells were treated with ehicle control (0.5% DMSO) or varying concentrations of HV-107 (250-8000 nM) for 24 or 48 h. Cell viability was measured using the CellTiter 96® AQueous One Solution Cell Proliferation Assay from Promega, as per manufacturer's instruction. Relative cell viability is presented for non-cancerous mammary epithelial cells MCF10A (FIG. 7) or metastatic breast cancer cells MDA-MB-231 or MDA-MB-435. N=3, each with three technical replicates; Error bars represent ±SEM; * p≤0.05.
as §2, with “Cells” for “FIG. 9. Effect of HV-118 on cell viability. Cells”, “MCF10A (FIG. 9)” for “(MCF10A)”

[4] = system: MDA-MB-435 metastatic breast cancer cells; assay: as above; format: cell-based, human; details: HV-107 24 or 48 h, HV-118 48 h
Procedure: as §1, §2, §3
as §2, with “Cells” for “FIG. 9. Effect of HV-118 on cell viability. Cells”, “MCF10A (FIG. 9)” for “(MCF10A)”

[5] = system: non-cancerous mammary epithelial cells MCF10A; assay: as above; format: cell-based, human; details: for toxicity / effect on viability of non-cancerous mammary epithelial cells, in words: MCF10A, at the concentrations tested
Procedure: as §1, §2, §3
as §2, with “Cells” for “FIG. 9. Effect of HV-118 on cell viability. Cells”, “MCF10A (FIG. 9)” for “(MCF10A)”

[6] = HV-118 toxicity assessment in mice; format: in vivo; details: 1 mg/kg BW
Procedure: FIG. 19 (A-C). HV-118 toxicity assessment. Blood collected at necropsy was used for FIG. 19A. complete blood count (CBC) analysis and FIG. 19B. determination of serum levels of liver enzymes Alanine Aminotranferase (ALT), Aspartate Aminotransferse (AST), and Alkaline phosphatase (ALP). N=4-5 mice/group; error bars represent ±SEM. FIG. 19C. Average mouse weight as a function of days following HV-118 administration. N=13-15 mice/group.
An in vivo study was performed to assess HV-118 toxicity and test its effects in mammary tumor growth and metastasis. Immunocompromised mice were inoculated with green fluorescent protein (GFP)-tagged MDA-MB-231 cells. After tumors reached an average size of 80 mm^3, mice (n=15/group) were administered with control or HV-118 at 1 mg/kg body weight (BW) by intraperitoneal (i.p.) injection every day from Monday to Friday for approximately 2 months. The effects of HV-118 on tumor growth were monitored weekly by in situ fluorescence image analysis (starting from day 1 of treatment). Mammary tumor growth was quantified using Image J software, as the pixel intensity (integrated density) determined from digital tracing of the fluorescent tumor area at each imaging session and calculated as a function of the fluorescence intensity on day one of treatment. At necropsy, blood was collected, and organs were dissected and stored in liquid nitrogen. Metastatic foci were quantified for fluorescence intensity and area of fluorescence (lesion size) for each organ by Image J analysis of digital images from a fluorescence stero microscope. […] Toxicity was assessed by: 1) performing a hematologic profile (complete blood count (CBC) analysis), 2) measuring serum levels of liver enzymes Alanine Aminotranferase (ALT), Aspartate Aminotransferse (AST), and Alkaline phosphatase (ALP), and 3) monitoring animal weight throughout the study.

Row | SMILES | inhibition at 2 µM ([1]; 2000 nM) | inhibition of breast cancer cell viability [2] | concentration at which viability is significantly inhibited [3] | concentration at which viability is significantly inhibited [4] | toxicity / effect on viability of non-cancerous mammary epithelial cells, in words ([5]; listed as HV-107) | toxicity to non-cancerous mammary epithelial cells, in words ([5]; at concentrations ≥1 μM) | inhibition at 0.1 µM ([1]; 100 nM) | inhibition at 0.2 µM ([1]; 200 nM) | toxicity / effect on viability of non-cancerous mammary epithelial cells, in words [5] | toxicity at the tested dose [6] | hematologic profile (complete blood count) ([6]; blood at necropsy) | serum levels of ALT, AST, or ALP ([6]; blood at necropsy) | mice weights ([6]; throughout the study)
1 | CCn1c2ccccc2c2cc(C(=O)Nc3cccnc3N3CCOCC3)ccc21 [Compound 11b, 9-Ethyl-9H-carbazole-3-carboxylic Acid (2-morpholin-4-yl-pyridin-3-yl)-amide] | 30 to 50% | 45% | ≥ 500 nM | ≥ 500 nM | minimal toxicity; also recorded: minimal or no inhibition | not toxic | – | – | – | – | – | – | –
2 | CCn1c2ccccc2c2cc(Nc3cc(C)nc(Cl)n3)ccc21 [HV-118, (2-Chloro-6-methyl-pyrimidin-4-yl)-(9-ethyl-9H-carbazol-3-yl)-amine] | – | – | ≥ 50 nM | ≥ 50 nM | – | – | ~60% | ~80% | minimal effects; also recorded: minimal or no inhibition; also recorded: minimal toxicity | no toxicity | no changes | no changes | no changes
